Marks after values point to notes of the source that are not given here.
Key:
Human COX I = biological target: T1, Human COX I (Homo sapiens, UniProt P23219); experiment: COX I activity in vitro (PGE2 ELISA, recombinant enzyme); format: biochemical; conditions: arachidonic acid 10 μM, pre-incubation 10-20 minutes; read-out: Human COX I ID50
T1 construct: A 2.0 kb fragment containing the coding region of either human or murine COX-I or human or murine COX-II; made in house; host or cells: SF9 insect cells (recombinant baculovirus, transfer vector pVL1393)
T1 sequence (P23219 24-599): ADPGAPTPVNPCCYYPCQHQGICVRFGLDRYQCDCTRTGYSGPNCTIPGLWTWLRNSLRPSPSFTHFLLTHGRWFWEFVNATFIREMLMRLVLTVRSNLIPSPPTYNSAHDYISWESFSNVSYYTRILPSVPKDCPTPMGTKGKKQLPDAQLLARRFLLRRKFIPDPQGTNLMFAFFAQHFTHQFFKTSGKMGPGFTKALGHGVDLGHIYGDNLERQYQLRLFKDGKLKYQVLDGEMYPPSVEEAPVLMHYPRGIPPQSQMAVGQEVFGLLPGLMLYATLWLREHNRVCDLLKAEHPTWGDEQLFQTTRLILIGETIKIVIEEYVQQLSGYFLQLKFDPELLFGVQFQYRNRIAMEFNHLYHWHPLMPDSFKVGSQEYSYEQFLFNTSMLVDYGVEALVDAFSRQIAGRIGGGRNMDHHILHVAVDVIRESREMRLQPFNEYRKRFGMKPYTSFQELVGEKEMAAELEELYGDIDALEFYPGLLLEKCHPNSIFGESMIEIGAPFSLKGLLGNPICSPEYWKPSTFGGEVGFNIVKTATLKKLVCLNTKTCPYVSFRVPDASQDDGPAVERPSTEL

Human COX II = biological target: T2, Human COX II (Homo sapiens, UniProt P35354); experiment: COX II activity in vitro (PGE2 ELISA, recombinant enzyme); format: biochemical; conditions: arachidonic acid 10 μM, pre-incubation 10-20 minutes; read-out: Human COX II ID50
T2 construct: A 2.0 kb fragment containing the coding region of either human or murine COX-I or human or murine COX-II; made in house; host or cells: SF9 insect cells (recombinant baculovirus, transfer vector pVL1393)
T2 sequence (P35354 18-604): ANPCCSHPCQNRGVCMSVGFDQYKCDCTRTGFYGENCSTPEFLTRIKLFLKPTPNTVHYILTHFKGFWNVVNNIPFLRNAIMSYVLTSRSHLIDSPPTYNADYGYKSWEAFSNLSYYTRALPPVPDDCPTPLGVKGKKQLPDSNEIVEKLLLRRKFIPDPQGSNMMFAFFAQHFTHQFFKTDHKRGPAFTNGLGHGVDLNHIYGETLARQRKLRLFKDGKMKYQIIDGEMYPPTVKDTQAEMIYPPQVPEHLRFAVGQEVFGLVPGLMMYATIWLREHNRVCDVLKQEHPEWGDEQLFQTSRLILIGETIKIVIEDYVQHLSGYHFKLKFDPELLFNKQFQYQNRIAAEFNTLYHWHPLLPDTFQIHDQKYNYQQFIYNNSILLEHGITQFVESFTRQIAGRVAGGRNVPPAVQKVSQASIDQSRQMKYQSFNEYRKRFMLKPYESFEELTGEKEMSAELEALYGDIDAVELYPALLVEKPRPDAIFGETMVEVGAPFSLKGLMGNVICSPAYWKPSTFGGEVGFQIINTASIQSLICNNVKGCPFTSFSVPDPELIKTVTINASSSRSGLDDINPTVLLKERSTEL

carrageenan foot edema = experiment: Rat Carrageenan Foot Pad Edema Test; format: in vivo; conditions: 30 mg/kg body weight, oral, dosed 1 h before carrageenan, foot volume 3 h after carrageenan
Protocol: The carrageenan foot edema test was performed with materials, reagents and procedures essentially as described by Winter, et al., (Proc. Soc. Exp. Biol. Med., 111, 544 (1962)). Male Sprague-Dawley rats were selected in each group so that the average body weight was as close as possible. Rats were fasted with free access to water for over sixteen hours prior to the test. The rats were dosed orally (1 ml) with compounds suspended in vehicle containing 0.5% methylcellulose and 0.025% surfactant, or with vehicle alone. One hour later a subplantar injection of 0.1 ml of 1% solution of carrageenan/sterile 0.9% saline was administered and the volume of the injected foot was measured with a displacement plethysmometer connected to a pressure transducer with a digital indicator. Three hours after the injection of the carrageenan, the volume of the foot was again measured. The average foot swelling in a group of drug-treated animals was compared with that of a group of placebo-treated animals and the. percentage inhibition of edema was determined (Otterness and Bliven, Laboratory Models for Testing NSAIDs, in Non-steroidal Anti-Inflammatory Drugs, (J. Lombardino, ed. 1985)).

[1] = tested on: carrageenan-induced hyperalgesic foot withdrawal; experiment: Rat Carrageenan-induced Analgesia Test; format: in vivo; conditions: oral, 3 h after carrageenan
Protocol: The analgesia test using rat carrageenan was performed with materials, reagents and procedures essentially as described by Hargreaves, et al., (Pain, 32, 77 (1988)). Male Sprague-Dawley rats were treated as previously described for the Carrageenan Foot Pad Edema test. Three hours after the injection of the carrageenan, the rats were placed in a special plexiglass container with a transparent floor having a high intensity lamp as a radiant heat source, positionable under the floor. After an initial twenty minute period, thermal stimulation was begun on either the injected foot or on the contralateral uninjected foot. A photoelectric cell turned off the lamp and timer when light was interrupted by paw withdrawal. The time until the rat withdraws its foot was then measured. The withdrawal latency in seconds was determined for the control and drug-treated groups, and percent inhibition of the hyperalgesic foot withdrawal determined.

| melting point | IC50 (Human COX I) | IC50 (Human COX II) | SMILES | RAT PAW EDEMA % Inhibition (carrageenan foot edema) | ANALGESIA % Inhibition ([1]; 30 mg/kg body weight) | ANALGESIA % Inhibition ([1]; 50 mg/kg body weight) |
| --- | --- | --- | --- | --- | --- | --- |
| 249 to 250 °C (dec.) | > 100 µM | 0.2 µM | CS(=O)(=O)c1ccc(-c2nc(C(F)(F)F)[nH]c2-c2ccc(F)cc2)cc1 [Example 1, 5-(4-Fluorophenyl)-4-(4-methylsulfonylphenyl)-2-trifluoromethyl-1H-imidazole] | 22% | 25% |  |
| 257 °C | > 100 µM | 0.2 µM | CC(=O)n1c(C(F)(F)F)nc(-c2ccc(S(C)(=O)=O)cc2)c1-c1cc(C)cc(Cl)c1 [Example 58, 1-[5-(3-Chloro-5-methylphenyl)-4-[4-(methylsulfonyl)phenyl]-2-(trifluoromethyl)-1H-imidazol-1-yl]ethanone] | 14% |  |  |
| 95 to 97 °C | > 100 µM | 1.4 µM | CS(=O)(=O)c1ccc(-c2nc(C(F)(F)F)[nH]c2-c2cccs2)cc1 [Example 70, 4-[4-(Methylsulfonyl)phenyl]-5-(2-thiophenyl)-2-(trifluoromethyl)-1H-imidazole] | 27% |  | 29* % |

Reference: patent US6426360B1, “4,5-substituted imidazolyl compounds for the treatment of inflammation” (G D Searle & Co., priority 1994, dated 2002)
